# Entries after “also recorded” stand apart in the source; their conditions may differ.
# Columns and labels:
# OCI-Ly18 tumor = assay: Dexamethasone scheduling with glofitamab, gemcitabine and oxaliplatin: tumor growth; format: in vivo, humanized BRGS-CD47 mice
# Procedure: Human OCI-Ly18 (Diffuse Large B-Cell Lymphoma; DLBCL) cells were originally obtained from ATCC and subsequently expanded and deposited in the Roche Glycart internal cell bank. Cells were cultured in RPMI medium containing 10% fetal calf serum (FCS) and 1× GLUTAMAX®. The cells were maintained at 37° C. in a water-saturated atmosphere with 5% CO2. A 50 μL cell suspension (5×10^6 OCI-Ly18 cells) mixed with 50 μL Matrigel was injected subcutaneously into the flank of anesthetized mice using a 22G to 30G needle. […] Health monitoring was performed regularly. At the appropriate time, mice were injected subcutaneously with tumor cells as described and treated with the compounds or histidine buffer (Vehicle; Group A) when tumor size reached approximately 200 mm^3 (Day 7). […] Gemcitabine and oxaliplatin were injected intraperitoneally (i.p.), glofitamab intravenously (i.v.), and dexamethasone was administered via oral gavage. Groups A-D received no dexamethasone: • Group A: vehicle (control group). • Group B: glofitamab monotherapy • Group C: gemcitabine and oxaliplatin. • Group D: glofitamab, gemcitabine and oxaliplatin. […] [table] All mice were injected with the appropriate solutions. […] Subsequent combination treatments were carried out concomitantly. To obtain the proper amount of compounds per injection volume, the stock solutions (Table 20) were diluted with histidine buffer when necessary. Tumor growth was measured three times weekly using a caliper and tumor volume was calculated as followed: The study was terminated at day 60 after a total of 7 cycles of treatment.
# serum cytokines [1] = settings: day 10
# Procedure: Cytokine measurement was carried out with the Luminex™ FLEXMAP 3D™ system using Bio-Plex Pro Human Cytokine Assay according to the manufacturer's instruction.
# serum cytokines [2] = assay: Dexamethasone scheduling with glofitamab: serum cytokines by multiplex assay; format: in vivo, humanized BRGS-CD47 mice; settings: for Serum cytokine levels 4 hours after the first glofitamab injection: glofitamab 0.15 mg/kg i.v., dexamethasone co-administered in Groups C-G (2-6 mg/kg orally)
# Procedure: Group B animals (n=14) were injected intravenously with glofitamab only (0.15 mg/kg at first and 0.5 mg/kg at subsequent injections in 200 μL of histidine buffer) once weekly for 5 weeks.
# Serum was prepared by centrifugation.
# Serum was collected and stored at −20° C. Serum samples were diluted 1:10 and used for the analysis of different cytokines/chemokines using the Bio-Plex Pro™ Human Chemokine Panel, 40-Plex system (Catalog No. 171AK99MR2; Bio-Rad; Hercules, CA), following the manufacturer's instructions.
# [3] = in vivo
Serum IFN-γ and IL-2 (serum cytokines [1]; Groups F and H),Serum MCP-1 and IL-8 (serum cytokines [1]; Groups F and H),"CRS-related serum cytokines, such as IL-6, vs glofitamab monotherapy group (serum cytokines [1]; additional dexamethasone injection 24 hours post glofitamab (Groups F and H))",Serum cytokine levels 28 hours after the first glofitamab injection vs glofitamab only (serum cytokines [2]; 1 or 2 dexamethasone doses prior to glofitamab only (Groups C and E)),"IL-6 with dexamethasone post treatment dose (serum cytokines [2]; 24 hours post-glofitamab administration, 28 hours post-glofitamab time point)",Compound,"Anti-tumor effect of glofitamab + gemcitabine + oxaliplatin with added dexamethasone (OCI-Ly18 tumor; dexamethasone 4 mg/kg p.o., Groups E-H, correlated with frequency of dexamethasone administration)","Anti-tumor effect vs CD20-TCB and chemotherapy without dexamethasone (OCI-Ly18 tumor; dexamethasone 4 mg/kg p.o., Groups G and H (most frequent injections), study termination)",IL-6 and IL-10 levels with additional dexamethasone premedication dose (serum cytokines [2]; 24-hour pre-glofitamab administration),"Levels of some cytokines (e.g., GM-CSF), second dexamethasone dose prior to glofitamab vs only 1 dose (serum cytokines [2]; Groups D-G, 4 hours after first glofitamab injection)","Serum cytokine levels 28 hours after the first glofitamab injection (serum cytokines [2]; dexamethasone prior to and after glofitamab injection (Groups D and F), mainly IL-6, MIP1β, MIP1α, TNFα reduced)",Serum cytokine levels 4 hours after the first glofitamab injection (serum cytokines [2]),Pharmacokinetics on co-administration with gemcitabine or oxaliplatin [3],"Tumor growth (tumor volume) up to day 60 (OCI-Ly18 tumor; 7 weekly cycles, glofitamab 0.15/0.5 mg/kg i.v., gemcitabine/oxaliplatin 50/3 mg/kg i.p., no dexamethasone (Groups B-D))","Serum cytokine levels after the second glofitamab injection (serum cytokines [2]; 0.5 mg/kg, much lower than after the first cycle)",Serum cytokine levels 28 hours after the first glofitamab injection (serum cytokines [2]; glofitamab monotherapy (Group B))
did not show as strong a reduction,statistically reduced,significant reduction,No difference in cytokine levels,mitigated IL-6 at the later time point,"C[C@@H]1C[C@H]2[C@@H]3CCC4=CC(=O)C=C[C@]4(C)[C@@]3(F)[C@@H](O)C[C@]2(C)[C@@]1(O)C(=O)COP(=O)(O)O [dexamethasone, Dexamethasone sodium phosphate]",improvement in anti-tumor effects,statistically significant better anti-tumor effects,"reduced IL-6, and to some extent IL-10 levels, at the early time point, with no mitigation capacity at the later time point",further reduced the levels of some cytokines,effectively mitigated cytokine levels for an extended duration; also recorded: very low cytokine levels,significantly reduced cytokine levels,–,–,–,–
–,–,–,–,–,"glofitamab: anti-CD20/anti-CD3 bispecific antibody, 2:1 configuration; CAS 2229047-91-8",–,–,–,–,–,strong cytokine release,not affected,"initially elicited a robust inhibition of tumor growth, which was subsequently followed by tumor recurrence in all treated mice",did not show an increase in cytokine levels,higher cytokine levels
